Test results as given in US9943554B2, “Compositions and methods relating to solenopsins and their uses in treating neurological disorders and enhancing physical performance” (priority 2006, dated 2018).

Tests used:
[1] = system: Aβ1-40 peptide; experiment: Brain and plasma Aβ1-40 peptide levels in APP transgenic mice after single oral administration; type: in vivo; settings: single 10 mg/kg oral, compared with Aβ1-42
Source text: The APP mice (male) used in these experiments were designed by microinjection of the human APP gene (with the Swedish and London mutations) into mouse eggs under the control of the platelet-derived growth factor B (PDGF-B) chain gene promoter. The mice were generated on a C57BL/6 background. Animals were housed in the Medical University of South Carolina Animal Facility under a 12:12 light:dark cycle. Animals were housed in standard non-sterile rodent microisolator cages, with filtered cage tops and housed 4 to a cage. Animals were fed ad libitum and maintained by brother sister mating. Transgenic animals were identified by PCR analysis. The mice generated from this construct develop amyloid deposits starting at 3 months of age. Animals were aged for 3 months and then maintained for 90 days and sacrificed for amyloid quantification.
FIG. 2 illustrates the effect of SPI-001 on brain Aβ1-42 peptide levels when administered at 10 mg/kg orally to the APP transgenic mice. Animals were dosed once with SPI-001 and then examined at 0, 4, 24 hours and 7 days for A[…] peptide levels (Biosource International). […] The plasma levels were opposite to the brain levels.
Animals were dosed once with SPI-001 and then examined at 0, 4, 24, 48 hours and 7 days for A[…] peptide levels. […] The plasma levels were opposite to the brain levels.

[2] = system: APP transgenic mice; experiment: Morris water maze test in APP mice treated for 90 days; type: in vivo; settings: 10 mg/kg orally in 25% PEG daily for 3 months (90 days)
Method: Morris water-maze testing. All mice were tested once in the Morris water maze test at the end of the experiment. Mice were trained in a 1.2 m open field water maze. The pool was filled to a depth of 30 cm with water and maintained at 25° C. The escape platform (10 cm square) was placed 1 cm below the surface of the water. During the trials, the platform was removed from the pool. The cued test was carried out in the pool surrounded with white curtains to hide any extra-maze cues. All animals underwent non-spatial pretraining (NSP) for three consecutive days. These trials were to prepare the animals for the final behavioral test to determine the retention of memory to find the platform. These trials were not recorded (for training purposes only). For the training and learning studies, the curtains were removed to add extra-maze cues (this allows for the identification of animals with swimming impairments). On day 1, the mice were placed on the hidden platform for 20 seconds (trial 1), for trials 2-3 animals were released in the water at a distance of 10 cm from the cued-platform or hidden platform (trial 4) and allowed to swim to the platform. […]
SPI-001 was administered to APP transgenic mice at 10 mg/kg for 3 months to determine the effect upon Aβ peptide and amyloid load. […] Animals were analyzed for behavioral changes associated with drug treatment (FIG. 7). […]

[3] = system: C57BL/6 mice; experiment: Selectivity and safety profile in C57BL/6 mice; type: in vivo
Method: Animals (C57BL/6 mice, 5 mice per group) were treated with SPI-001 at 0, 4, 40, and 400 mg/kg in 25% PEG 400 with a single dose and examined 14 days later.

[4] = target: T1, muscarinic receptors (M3) (Homo sapiens, UniProt P20309); experiment: CEREP screen: muscarinic receptor M3; type: binding; design: dose or concentration left out as unconfirmed
T1 construct: CEREP
Method: (§1) Recent CEREP screen indicated for SPI-001 ([…]) that it inhibited muscarinic receptors (M1, M2 and M3), Na+ channels and monoamine (NE, DA, and 5-HT) transporters with high affinity (˜90%).

[5] = system: MAPKAPK2 pathways; experiment: Initial studies: MAPKAPK2 pathways; type: biochemical
[6] = target: T2, muscarinic receptors (M1) (Homo sapiens, UniProt P11229); experiment: CEREP screen: muscarinic receptor M1; type: binding; design: dose or concentration left out as unconfirmed
T2 construct: CEREP
T2 sequence (P11229 1-460): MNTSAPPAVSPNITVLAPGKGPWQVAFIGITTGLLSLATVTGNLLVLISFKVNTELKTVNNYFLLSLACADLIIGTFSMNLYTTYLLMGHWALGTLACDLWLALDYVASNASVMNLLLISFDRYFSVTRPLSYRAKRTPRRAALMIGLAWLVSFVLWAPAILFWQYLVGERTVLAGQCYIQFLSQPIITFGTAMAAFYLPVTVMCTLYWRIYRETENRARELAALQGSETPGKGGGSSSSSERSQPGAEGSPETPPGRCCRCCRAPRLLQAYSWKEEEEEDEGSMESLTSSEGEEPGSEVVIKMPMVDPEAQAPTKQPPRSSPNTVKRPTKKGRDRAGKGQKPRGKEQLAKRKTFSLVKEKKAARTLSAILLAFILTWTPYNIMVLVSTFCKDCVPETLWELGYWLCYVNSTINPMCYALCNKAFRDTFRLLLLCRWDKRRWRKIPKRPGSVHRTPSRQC
Method: as §1

[7] = target: T3, monoamine (DA) transporters (Homo sapiens, UniProt Q01959); experiment: CEREP screen: DA transporter; type: binding; design: dose or concentration left out as unconfirmed
T3 construct: CEREP
Method: as §1

[8] = system: Aβ1-40 peptide; experiment: Brain and plasma Aβ1-40 peptide levels in guinea pigs after single oral administration; type: in vivo; settings: Guinea Pig; single 10 mg/kg oral; compared with Aβ1-42
Method: Animals were dosed once with SPI-001 and then examined at 0, 4, 24, 48 hours and 7 days for AP peptide levels.

[9] = 400 mg/kg in 25% PEG 400 for 14 days
[10] = C57BL/6 mice, single dose 4, 40 and 400 mg/kg in 25% PEG 400, examined 14 days later

T3 sequence (Q01959 whole entry): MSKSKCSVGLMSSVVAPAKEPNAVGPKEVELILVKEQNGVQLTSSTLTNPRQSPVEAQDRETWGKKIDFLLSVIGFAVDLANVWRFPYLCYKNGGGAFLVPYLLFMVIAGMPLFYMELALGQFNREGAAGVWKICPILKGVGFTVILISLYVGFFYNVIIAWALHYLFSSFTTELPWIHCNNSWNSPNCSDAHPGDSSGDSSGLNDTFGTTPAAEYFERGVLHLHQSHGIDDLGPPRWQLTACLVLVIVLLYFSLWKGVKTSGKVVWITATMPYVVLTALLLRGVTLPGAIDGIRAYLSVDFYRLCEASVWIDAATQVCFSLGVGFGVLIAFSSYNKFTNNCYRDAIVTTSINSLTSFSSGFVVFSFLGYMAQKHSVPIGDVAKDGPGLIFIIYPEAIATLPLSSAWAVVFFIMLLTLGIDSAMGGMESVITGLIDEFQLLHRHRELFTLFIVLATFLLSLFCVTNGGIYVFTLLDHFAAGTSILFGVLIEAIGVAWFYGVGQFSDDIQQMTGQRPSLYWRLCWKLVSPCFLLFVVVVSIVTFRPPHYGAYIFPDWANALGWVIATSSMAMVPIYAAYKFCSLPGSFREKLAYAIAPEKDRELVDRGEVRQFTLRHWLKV
T1 sequence (P20309 whole entry): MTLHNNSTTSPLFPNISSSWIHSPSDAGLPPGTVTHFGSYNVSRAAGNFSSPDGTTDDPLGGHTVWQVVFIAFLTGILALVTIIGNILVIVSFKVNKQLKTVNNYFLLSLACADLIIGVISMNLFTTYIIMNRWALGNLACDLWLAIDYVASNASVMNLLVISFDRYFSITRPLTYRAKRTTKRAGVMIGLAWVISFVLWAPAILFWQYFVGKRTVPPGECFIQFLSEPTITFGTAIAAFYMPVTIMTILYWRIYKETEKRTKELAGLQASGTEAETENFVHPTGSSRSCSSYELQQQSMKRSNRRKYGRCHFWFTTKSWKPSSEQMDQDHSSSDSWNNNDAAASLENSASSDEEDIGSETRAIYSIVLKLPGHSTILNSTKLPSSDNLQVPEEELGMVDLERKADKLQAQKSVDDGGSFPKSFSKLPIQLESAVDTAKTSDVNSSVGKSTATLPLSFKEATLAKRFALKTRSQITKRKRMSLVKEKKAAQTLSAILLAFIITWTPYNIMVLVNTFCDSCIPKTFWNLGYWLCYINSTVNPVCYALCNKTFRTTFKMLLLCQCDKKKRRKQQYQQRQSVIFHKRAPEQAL

SMILES: CCCCCCCCCCC[C@H]1CCC[C@H](C)N1 (relative stereo) [SPI-001, trans-2-methyl 6-n-undecylpiperidine]
- brain Aβ1-40 peptide levels [1]: same levels of decrease in the brain
- plasma Aβ1-40 peptide levels [1]: increase in the plasma
- behavior in the Morris Water Maze [2]: improvement in behavior
- course of body weight changes [3, 9]: stopped by 14 days and reversed
- gross behavioral deficits [3, 9]: no gross behavioral deficits
- histological abnormalities in the tissues examined [3, 9]: no histological abnormalities
- body weight over the 14 days ([3]; 400 mg/kg in 25% PEG 400 for 14 days, 25% PEG animals showed a similar profile): slight decrease in body weight
- gross behavioral deficits upon visual inspection (daily) [3, 10]: no gross behavioral deficits
- histological analysis of tissues (brain, liver, kidney, heart, intestine, lungs) [3, 10]: did not show any abnormal structures
- inhibition [4]: ~90%
- effect on MAPKAPK2 pathways [5]: activating
- inhibition [6]: ~90%
- inhibition [7]: ~90%
- brain Aβ1-40 peptide levels [8]: same levels of decrease in the brain
- plasma Aβ1-40 peptide levels [8]: increase in the plasma
